Experimental data: patent publication US20250270200A1, “CTPS1 INHIBITORS AND USES THEREOF” (Nimbus Clotho, Inc., priority 2022, published 2025)
Like-named read-outs stand apart in the source and are kept apart here.

Target: T1, human CTPS1 (Homo sapiens, UniProt P17812)
T1 sequence (P17812 1-591): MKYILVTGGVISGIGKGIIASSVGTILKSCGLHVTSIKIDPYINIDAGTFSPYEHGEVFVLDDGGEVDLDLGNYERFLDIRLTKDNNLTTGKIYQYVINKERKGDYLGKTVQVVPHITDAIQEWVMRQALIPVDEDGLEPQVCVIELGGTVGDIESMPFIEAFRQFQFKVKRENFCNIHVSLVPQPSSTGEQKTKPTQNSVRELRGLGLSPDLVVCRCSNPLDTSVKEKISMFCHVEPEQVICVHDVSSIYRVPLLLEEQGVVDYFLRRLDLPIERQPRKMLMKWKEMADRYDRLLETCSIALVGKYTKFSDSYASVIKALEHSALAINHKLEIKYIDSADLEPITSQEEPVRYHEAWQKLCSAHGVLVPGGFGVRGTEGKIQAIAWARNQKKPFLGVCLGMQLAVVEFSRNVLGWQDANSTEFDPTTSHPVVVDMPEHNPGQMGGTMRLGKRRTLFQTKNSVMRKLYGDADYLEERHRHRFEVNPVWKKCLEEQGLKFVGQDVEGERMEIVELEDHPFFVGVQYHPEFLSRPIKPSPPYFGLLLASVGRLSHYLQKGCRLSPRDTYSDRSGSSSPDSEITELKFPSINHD
Test: ADP-Glo assay, human CTPS1 enzyme inhibition
Assay type: biochemical
Conditions: read-out: ADP-Glo_WT_hCTPS1—25 nM_IC50 (IC50)
Procedure: The enzyme inhibitory activities of the compounds of the invention against the target of interest were determined using the ADP-Glo™ assay (Promega). Assays for human CTPS1 and CTPS2 were performed in 1× assay buffer containing 50 mM HEPES (Life Technologies), 10 mM Mg2+, 5 mM KCl, 2 mM DTT, 0.01% F-127, pH to 7.4 accordingly. All reagents are from Sigma-Aldrich, unless specified otherwise. Purified human full length active N-terminal FLAG-8×HIS-TEV tagged CTPS1 (UniprotKB—P17812, […]-CTPS1[1-591]) was generated using a mammalian expression system at Viva Biotech (Shanghai) Ltd.
Purified human CTPS1 protein was prepared in 1× assay buffer to the final working protein concentration required for the reaction. A 2.5 μL volume per well of human CTPS 1 protein was mixed with 0.1 μL per well of test compound dissolved in DMSO and pre-incubated at 25 degrees C. for 10 minutes. 2.5 μL per well of the reaction precursors ATP (UltraPure ATP from ADP-Glo™ kit) and UTP were then added and pre-incubated for an additional 10 minutes at 25 degrees C. Finally, the reaction was initiated by the addition of 5 μL of the reaction precursors L-glutamine and GTP. The final concentration of all reaction components in the assay: ATP (120 μM), UTP (160 μM), GTP (60 μM), L-Glutamine (100 μM), DMSO (1%), hCTPS1 (25 nM). This mixture was incubated for an appropriate amount of time within the determined linear phase of the reaction at 25 degrees C. under sealed plate conditions with constant agitation at 500 revolutions per minute (rpm). ADP-Glo™ reagent was added for 60 minutes (10 μL per well) and subsequently ADP-Glo™ development reagent was added for 60 minutes (20 μL per well) prior to signal detection in a microplate reader (Envision Multilabel Reader, Perkin Elmer). Following each reagent addition over the course of the assay, assay plates were pulse centrifuged for 1 minute at 1000 rpm.
The enzyme converts ATP to ADP and the ADP-Glo™ reagent subsequently depletes any remaining ATP in the reaction system. The ADP-Glo™ detection reagents converts the ADP that has been produced by the enzyme back into ATP, which is then utilized as a substrate together with luciferin for the enzyme luciferase. Light generated by this chemiluminescent reaction is quantified and is directly proportional to the amount of ADP produced by the CTPS1 enzyme reaction. […]

[1] = wild-type human CTPS1, 25 nM enzyme, ADP-Glo
[2] = wild-type human CTPS1 25 nM, ATP 120 μM, UTP 160 μM, GTP 60 μM, L-glutamine 100 μM, 25 degrees C.

IC50 [1] [nM]	IC50 [2] [nM]	SMILES
5 to 25	–	CCOc1cncc(-c2cnc(C(=O)N[C@]3(c4cc(NS(=O)(=O)C5CC5)ccn4)CCOC3)s2)n1 (single isomer, unassigned) [I-72]
> 100	–	CCOc1cncc(-c2cnc(C(=O)NC(C[C@@H]3COCCN3C)c3cc(NS(=O)(=O)C4CC4)ccn3)s2)n1 (single isomer, unassigned) [I-103]
5 to 25	–	CCOc1cncc(-c2cnc(C(=O)NC(c3cc(NS(=O)(=O)C4CC4)ccn3)C3CN(C)CCO3)s2)n1 (single isomer, unassigned) [I-105, N-((4-(cyclopropanesulfonamido)pyridin-2-yl)(4-methylmorpholin-2-yl)methyl)-5-(6-ethoxypyrazin-2-yl)thiazole-2-carboxamide]
5 to 25	–	CCOc1cncc(-c2cnc(C(=O)NC(c3cc(NS(=O)(=O)C4CC4)ccn3)C3CN(C)CCO3)s2)n1 (single isomer, unassigned) [I-106, N-((4-(cyclopropanesulfonamido)pyridin-2-yl)(4-methylmorpholin-2-yl)methyl)-5-(6-ethoxypyrazin-2-yl)thiazole-2-carboxamide]
5 to 25	–	CCOc1cncc(-c2cnc(C(=O)N[C@@H](CN3CCOCC3)c3cc(NS(=O)(=O)C4CC4)ncn3)s2)n1 (single isomer, unassigned) [I-247]
5 to 25	–	CCOc1cncc(-c2cnc(C(=O)N[C@H](c3cc(NS(=O)(=O)C4CC4)ncn3)C3CCOCC3)s2)n1 (single isomer, unassigned) [I-254]
5 to 25	–	CCOc1cncc(-c2cnc(C(=O)N[C@@H](c3cc(NS(=O)(=O)C4CC4)ncn3)C3CCOCC3)s2)n1 (single isomer, unassigned) [I-255]
–	5 to 25	COC[C@H](NC(=O)c1ncc(-c2cnn3ccc(Cl)cc23)s1)c1nccc(NS(=O)(=O)C2CC2)c1F (single isomer, unassigned) [II-1]
–	5 to 25	COC[C@@H](NC(=O)c1ncc(-c2cnn3ccc(Cl)cc23)s1)c1nccc(NS(=O)(=O)C2CC2)c1F (single isomer, unassigned) [II-2]
–	5 to 25	O=C(N[C@H](c1nccc(NS(=O)(=O)C2CC2)c1F)[C@H]1CCOC1)c1ncc(-c2cnn3ccc(Cl)cc23)s1 (single isomer, unassigned) [II-3]
–	5 to 25	O=C(N[C@@H](c1nccc(NS(=O)(=O)C2CC2)c1F)[C@@H]1CCOC1)c1ncc(-c2cnn3ccc(Cl)cc23)s1 (single isomer, unassigned) [II-4]
–	5 to 25	O=C(N[C@@H](c1nccc(NS(=O)(=O)C2CC2)c1F)[C@H]1CCOC1)c1ncc(-c2cnn3ccc(Cl)cc23)s1 (single isomer, unassigned) [II-5]
–	5 to 25	O=C(N[C@H](c1nccc(NS(=O)(=O)C2CC2)c1F)[C@@H]1CCOC1)c1ncc(-c2cnn3ccc(Cl)cc23)s1 (single isomer, unassigned) [II-6]
–	5 to 25	CCOc1cncc(-c2cnc(C(=O)N[C@@H](COC)c3cc(NS(=O)(=O)C4CC4)ncn3)s2)n1 (single isomer, unassigned) [II-7]
–	5 to 25	CCOc1cncc(-c2cnc(C(=O)N[C@H](COC)c3cc(NS(=O)(=O)C4CC4)ncn3)s2)n1 (single isomer, unassigned) [II-8]
–	5 to 25	COC[C@H](NC(=O)c1ncc(-c2cnn3ccc(Cl)cc23)s1)c1nccc(NS(=O)(=O)C2CC2)n1 (single isomer, unassigned) [II-9]

IC50 [1] [nM]	IC50 [2] [nM]	SMILES
–	25 to 50	COC[C@@H](NC(=O)c1ncc(-c2cnn3ccc(Cl)cc23)s1)c1nccc(NS(=O)(=O)C2CC2)n1 (single isomer, unassigned) [II-10]
–	25 to 50	CCOc1cncc(-c2cnc(C(=O)N[C@@H](c3cccc(NS(=O)(=O)C(F)F)c3)[C@@H](C)CN3CCCCC3)s2)n1 (single isomer, unassigned) [II-11]
–	5 to 25	CCOc1cncc(-c2cnc(C(=O)N[C@@H](c3cccc(NS(=O)(=O)C(F)F)c3)[C@H](C)CN3CCCCC3)s2)n1 (single isomer, unassigned) [II-12]
–	> 100	CCOc1cncc(-c2cnc(C(=O)N[C@H](c3cccc(NS(=O)(=O)C(F)F)c3)[C@H](C)CN3CCCCC3)s2)n1 (single isomer, unassigned) [II-13]
–	50 to 100	CCOc1cncc(-c2cnc(C(=O)N[C@H](c3cccc(NS(=O)(=O)C(F)F)c3)[C@@H](C)CN3CCCCC3)s2)n1 (single isomer, unassigned) [II-14]
–	5 to 25	O=C(N[C@H](c1cc(NS(=O)(=O)C2CC2)ccn1)C1CCOCC1)c1nnc(-c2cnn3ccc(Cl)cc23)s1 (single isomer, unassigned) [II-15]
–	5 to 25	O=C(N[C@@H](c1cc(NS(=O)(=O)C2CC2)ccn1)C1CCOCC1)c1nnc(-c2cnn3ccc(Cl)cc23)s1 (single isomer, unassigned) [II-16]
–	5 to 25	CCOc1cncc(-c2cnc(C(=O)N[C@H](c3nccc(NS(=O)(=O)C4CC4)c3F)[C@H]3CCOC3)s2)n1 (single isomer, unassigned) [II-17]
–	5 to 25	CCOc1cncc(-c2cnc(C(=O)N[C@H](c3nccc(NS(=O)(=O)C4CC4)c3F)[C@@H]3CCOC3)s2)n1 (single isomer, unassigned) [II-18]
–	5 to 25	CCOc1cncc(-c2cnc(C(=O)N[C@@H](c3nccc(NS(=O)(=O)C4CC4)c3F)[C@@H]3CCOC3)s2)n1 (single isomer, unassigned) [II-19]
5 to 25	–	CCOc1cncc(-c2cnc(C(=O)N[C@@H](c3cc(NS(=O)(=O)C4CC4)ccn3)[C@H](C)CN3CCCCC3)s2)n1 (stereo in doubt) [I-51, N-((1R,2R)-1-(4-(cyclopropanesulfonamido)pyridin-2-yl)-2-methyl-3-(piperidin-1-yl)propyl)-5-(6-ethoxypyrazin-2-yl)thiazole-2-carboxamide]
50 to 100	–	CCOc1cncc(-c2cnc(C(=O)N[C@@H](c3cc(NS(=O)(=O)C4CC4)ccn3)[C@@H](C)CN3CCCCC3)s2)n1 (stereo in doubt) [I-52, N-((1R,2S)-1-(4-(cyclopropanesulfonamido)pyridin-2-yl)-2-methyl-3-(piperidin-1-yl)propyl)-5-(6-ethoxypyrazin-2-yl)thiazole-2-carboxamide]
5 to 25	–	CCOc1cncc(-c2cnc(C(=O)N[C@H](c3cc(NS(=O)(=O)C4CC4)ccn3)[C@H](C)CN3CCCCC3)s2)n1 (stereo in doubt) [I-53, N-((1S,2R)-1-(4-(cyclopropanesulfonamido)pyridin-2-yl)-2-methyl-3-(piperidin-1-yl)propyl)-5-(6-ethoxypyrazin-2-yl)thiazole-2-carboxamide]
5 to 25	–	CCOc1cncc(-c2cnc(C(=O)N[C@H](c3cc(NS(=O)(=O)C4CC4)ccn3)[C@@H](C)CN3CCCCC3)s2)n1 (stereo in doubt) [I-54, N-((1S,2S)-1-(4-(cyclopropanesulfonamido)pyridin-2-yl)-2-methyl-3-(piperidin-1-yl)propyl)-5-(6-ethoxypyrazin-2-yl)thiazole-2-carboxamide]
5 to 25	–	CCOc1cncc(-c2cnc(C(=O)NCc3cc(NS(=O)(=O)C4CC4)ncn3)s2)n1 [I-5, N-((6-(cyclopropanesulfonamido)pyrimidin-4-yl)methyl)-5-(6-ethoxypyrazin-2-yl)thiazole-2-carboxamide]
25 to 50	–	O=C(NC(CCN1CCCCC1)c1cc(NS(=O)(=O)C2CC2)ccn1)c1ncc(-c2cnn3ccc(Cl)cc23)s1 (centres unmarked) [I-8, 5-(5-chloropyrazolo[1,5-a]pyridin-3-yl)-N-(1-(4-(cyclopropanesulfonamido)pyridin-2-yl)-3-(piperidin-1-yl)propyl)thiazole-2-carboxamide]
